As usually defined, the pIC50 is −log10 of the IC50, conventionally taken in molar units. The low end stands for a high IC50, the high end for a low IC50.

Targets include KRas WT (Homo sapiens, UniProt P01116); KRas G12C (Homo sapiens, UniProt P01116, G12C); KRas G12D (Homo sapiens, UniProt P01116, G12D); KRas G12A (Homo sapiens, UniProt P01116, G12A); KRas G12S (Homo sapiens, UniProt P01116, G12S); KRas G12V (Homo sapiens, UniProt P01116, G12V); KRas G12R (Homo sapiens, UniProt P01116, G12R).
Holding throughout (test): biochemical

Structures are written as SMILES. pIC50: −log10 of the molar value.

Sequence of KRas G12R (P01116 1-169 isoform P01116-2 G12R): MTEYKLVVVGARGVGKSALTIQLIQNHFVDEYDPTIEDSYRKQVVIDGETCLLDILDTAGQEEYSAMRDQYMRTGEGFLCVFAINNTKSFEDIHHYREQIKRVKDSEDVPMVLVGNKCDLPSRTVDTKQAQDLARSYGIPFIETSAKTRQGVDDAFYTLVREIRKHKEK
Sequence of KRas G12A (P01116 1-169 isoform P01116-2 G12A): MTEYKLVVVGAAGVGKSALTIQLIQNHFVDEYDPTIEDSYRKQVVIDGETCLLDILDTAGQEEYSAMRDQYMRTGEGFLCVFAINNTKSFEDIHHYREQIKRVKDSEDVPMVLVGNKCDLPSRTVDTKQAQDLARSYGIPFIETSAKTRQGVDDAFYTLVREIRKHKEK
Sequence of KRas G12C (P01116 1-169 isoform P01116-2 G12C): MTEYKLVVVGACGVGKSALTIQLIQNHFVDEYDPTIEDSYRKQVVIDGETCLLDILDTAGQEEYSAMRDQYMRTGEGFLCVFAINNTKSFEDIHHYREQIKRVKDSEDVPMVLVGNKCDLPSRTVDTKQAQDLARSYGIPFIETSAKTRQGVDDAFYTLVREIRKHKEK
Sequence of KRas G12V (P01116 1-169 isoform P01116-2 G12V): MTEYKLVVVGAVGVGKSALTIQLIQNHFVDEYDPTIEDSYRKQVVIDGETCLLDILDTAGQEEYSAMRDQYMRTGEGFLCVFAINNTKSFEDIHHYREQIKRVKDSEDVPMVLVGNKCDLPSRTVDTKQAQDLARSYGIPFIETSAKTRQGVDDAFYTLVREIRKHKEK
Sequence of KRas G12D (P01116 1-169 isoform P01116-2 G12D): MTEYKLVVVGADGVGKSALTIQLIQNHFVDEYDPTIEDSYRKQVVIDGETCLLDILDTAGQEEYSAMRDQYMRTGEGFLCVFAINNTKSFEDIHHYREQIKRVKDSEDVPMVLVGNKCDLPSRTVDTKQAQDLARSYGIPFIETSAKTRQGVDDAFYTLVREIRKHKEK
Sequence of KRas G12S (P01116 1-169 isoform P01116-2 G12S): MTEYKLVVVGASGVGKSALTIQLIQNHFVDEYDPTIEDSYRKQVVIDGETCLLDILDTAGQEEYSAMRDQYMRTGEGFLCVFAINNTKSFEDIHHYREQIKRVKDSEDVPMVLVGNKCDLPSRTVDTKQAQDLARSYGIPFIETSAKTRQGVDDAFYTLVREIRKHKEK
Sequence of KRas WT (P01116 1-169 isoform P01116-2): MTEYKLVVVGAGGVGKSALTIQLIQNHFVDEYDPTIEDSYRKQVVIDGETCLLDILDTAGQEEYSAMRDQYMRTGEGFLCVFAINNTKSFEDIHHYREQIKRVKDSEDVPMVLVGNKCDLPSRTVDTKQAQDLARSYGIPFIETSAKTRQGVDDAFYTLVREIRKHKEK

`CCc1cccc2cccc(-c3ncc4c(N5CC6C(=O)NC(=O)C6C5)nc(OCC56CCCN5CCC6)nc4c3F)c12` (stereo not drawn) [Example 292, 5-(7-(8-ethylnaphthalen-1-yl)-8-fluoro-2-((hexahydro-1H-pyrrolizin-7a-yl)methoxy)pyrido[4,3-d]pyrimidin-4-yl)tetrahydropyrrolo[3,4-c]pyrrole-1,3(2H,3aH)-dione]: the pIC50 was 7.17 on KRas WT; 7.06 against KRas G12C; 7.68 on KRas G12D; 7.01 on KRas G12A; 7.59 against KRas G12S; 7.21 against KRas G12V. The molecule also gave a negative logarithm of the IC50 (pIC50) against KRas G12R of 6.74.
Turning to `CCc1cccc2cccc(-c3ncc4c(N5CCCC6(C5)NC(=O)NC6=O)nc(OCC56CCCN5CCC6)nc4c3F)c12` (stereo not drawn) [Example 293, 7-(7-(8-ethylnaphthalen-1-yl)-8-fluoro-2-((hexahydro-1H-pyrrolizin-7a-yl)methoxy)pyrido[4,3-d]pyrimidin-4-yl)-1,3,7-triazaspiro[4.5]decane-2,4-dione], the pIC50 against KRas WT is 8.22; at KRas G12C, 8.22; on KRas G12D, 8.00; on KRas G12A, 8.30; against KRas G12S, 8.22; on KRas G12V it was 8.40. Also, on KRas G12R, the pIC50 was 8.30.
As to `CCc1cccc2cccc(-c3ncc4c(N5CCCC6(CNC(=O)N6)C5)nc(OCC56CCCN5CCC6)nc4c3F)c12` (stereo not drawn) [Example 294, 7-(7-(8-ethylnaphthalen-1-yl)-8-fluoro-2-((hexahydro-1H-pyrrolizin-7a-yl)methoxy)pyrido[4,3-d]pyrimidin-4-yl)-1,3,7-triazaspiro[4.5]decan-2-one], the pIC50 against KRas WT is 7.85; at KRas G12C, 7.89; at KRas G12D, 8.05; against KRas G12A it was 7.89; at KRas G12S, 7.92; against KRas G12V, 8.05. This molecule also had a pIC50 against KRas G12R of 7.82.
For the molecule `CCc1cccc2cccc(-c3ncc4c(N5CCCC(c6nc[nH]n6)C5)nc(OCC56CCCN5CCC6)nc4c3F)c12` (stereo not drawn) [Example 295, 4-(3-(1H-1,2,4-triazol-3-yl)piperidin-1-yl)-7-(8-ethylnaphthalen-1-yl)-8-fluoro-2-((hexahydro-1H-pyrrolizin-7a-yl)methoxy)pyrido[4,3-d]pyrimidine], the negative logarithm of the IC50 (pIC50) on KRas WT was 5.55; on KRas G12C it was 5.72; against KRas G12D it was 5.61; on KRas G12A it was 5.74; against KRas G12S it was 5.62; against KRas G12V, 6.02. This molecule also showed a negative logarithm of the IC50 (pIC50) against KRas G12R of 6.23.
As for `CCc1c(F)ccc2cc(O)cc(-c3ncc4c(N5CCC[C@@](C)(O)C5)nc(C(=O)NC(C)CN(C)C)nc4c3F)c12` (stereo partly drawn) [Example 312, N-(1-(dimethylamino)propan-2-yl)-7-(8-ethyl-7-fluoro-3-hydroxynaphthalen-1-yl)-8-fluoro-4-((R)-3-hydroxy-3-methylpiperidin-1-yl)pyrido[4,3-d]pyrimidine-2-carboxamide], the pIC50 at KRas WT was 6.69; against KRas G12C it was 6.67; against KRas G12D, 6.41; at KRas G12A it was 6.81; at KRas G12S, 6.76; against KRas G12V, 6.60. On KRas G12R, this molecule gave a pIC50 of 6.69.
`C#Cc1c(F)ccc2cc(O)cc(-c3ncc4c(N5CCCC(O)C5)nc(OCCN(C)C)nc4c3F)c12` (stereo not drawn) [Example 387, 1-(2-(2-(dimethylamino)ethoxy)-7-(8-ethynyl-7-fluoro-3-hydroxynaphthalen-1-yl)-8-fluoropyrido[4,3-d]pyrimidin-4-yl)piperidin-3-ol]: the negative logarithm of the IC50 (pIC50) on KRas WT was 6.97; against KRas G12C, 7.02; at KRas G12D it was 6.91; on KRas G12A, 6.89; against KRas G12S, 6.95; against KRas G12V it was 6.89. Besides, at KRas G12R, the pIC50 is 6.90.
As for `Cc1ccc2[nH]ncc2c1-c1ncc2c(N3CCCC(C)(O)C3)nc(OCC34CCCN3CCC4)nc2c1F` (stereo not drawn) [Example 430, 1-(8-fluoro-2-((hexahydro-1H-pyrrolizin-7a-yl)methoxy)-7-(5-methyl-1H-indazol-4-yl)pyrido[4,3-d]pyrimidin-4-yl)-3-methylpiperidin-3-ol], the negative logarithm of the IC50 (pIC50) is 5.09 against KRas WT; 5.11 on KRas G12C; 5.19 against KRas G12D; 5.17 on KRas G12A; 5.11 at KRas G12S; 5.32 against KRas G12V. The negative-log IC50 (pIC50) against KRas G12R was 5.06.
Consider `Cc1cc(-c2ncc3c(N4CCCC(C)(O)C4)nc(OCC45CCCN4CCC5)nc3c2F)c2cn[nH]c2c1` (stereo not drawn) [Example 431, 1-(8-fluoro-7-(6-methyl-1H-indazol-4-yl)-2-((tetrahydro-1H-pyrrolizin-7a(5H)-yl)methoxy)pyrido[4,3-d]pyrimidin-4-yl)-3-methylpiperidin-3-ol], for which the pIC50 on KRas WT was 4.71; against KRas G12C, 4.75; against KRas G12D, 5.02; against KRas G12A, 4.71; against KRas G12S, 4.71; against KRas G12V, 4.80. The molecule also showed a negative-log IC50 (pIC50) against KRas G12R of 4.46.
For the molecule `Cc1ccc(O)cc1-c1ncc2c(N3CCCC(C)(O)C3)nc(OCC34CCCN3CCC4)nc2c1F` (stereo not drawn) [Example 432, 1-(8-fluoro-2-((hexahydro-1H-pyrrolizin-7a-yl)methoxy)-7-(5-hydroxy-2-methylphenyl)pyrido[4,3-d]pyrimidin-4-yl)-3-methylpiperidin-3-ol], the negative logarithm of the IC50 (pIC50) against KRas WT is 5.61; against KRas G12C, 5.62; at KRas G12D, 5.94; on KRas G12A, 5.64; at KRas G12S, 5.62; at KRas G12V it was 5.71. This molecule also had a negative-log IC50 (pIC50) at KRas G12R of 5.52.
For the molecule `N#CCc1cccc2cccc(-c3ncc4c(N5CCCC6(CC(=O)N6)C5)nc(OCC56CCCN5CCC6)nc4c3F)c12` (stereo not drawn) [Example 434, 2-(8-(8-fluoro-2-((hexahydro-1H-pyrrolizin-7a-yl)methoxy)-4-(2-oxo-1,6-diazaspiro[3.5]nonan-6-yl)pyrido[4,3-d]pyrimidin-7-yl)naphthalen-1-yl)acetonitrile], the negative-log IC50 (pIC50) on KRas WT is 5.29; against KRas G12C, 5.46; at KRas G12D, 5.66; against KRas G12A, 5.25; against KRas G12S it was 5.45; against KRas G12V it was 5.49. For the same molecule, the negative-log IC50 (pIC50) at KRas G12R is 5.35.
Take `Cc1cc(N)nc(-c2ncc3c(N4CCC[C@@](C)(O)C4)nc(OC[C@@H]4CCCN4C)nc3c2F)c1C(F)(F)F` [Example 435, (R)-1-(7-(6-amino-4-methyl-3-(trifluoromethyl)pyridin-2-yl)-8-fluoro-2-(((S)-1-methylpyrrolidin-2-yl)methoxy)pyrido[4,3-d]pyrimidin-4-yl)-3-methylpiperidin-3-ol]: the pIC50 against KRas WT was 5.35; on KRas G12C, 5.32; against KRas G12D, 5.41; on KRas G12A, 5.31; against KRas G12S it was 5.25; at KRas G12V, 5.26. This molecule also had a negative-log IC50 (pIC50) on KRas G12R of 5.16.
With `NS(=O)(=O)CC1CCCN(c2nc(OCC34CCCN3CCC4)nc3c(F)c(-c4cccc5ccccc45)ncc23)C1` (stereo not drawn) [Example 436], the negative logarithm of the IC50 (pIC50) is 6.71 against KRas WT; 6.57 at KRas G12C; 6.10 at KRas G12D; 6.69 at KRas G12A; 6.66 at KRas G12S; 6.19 against KRas G12V. This molecule had a negative logarithm of the IC50 (pIC50) against KRas G12R of 6.48.

The record behind these values is patent publication US12398154B2, “Azaquinazoline pan-KRas inhibitors” (Mirati Therapeutics, Inc., priority 2020, dated 2025).
